Assay results from PubChem BioAssay AID2060335 (Molecular Pharmacology Branch, DTP, NCI, 2025).
pIC50: −log10 of the molar value. “And” between values parts separate entries of the source, which are not always exact repeats. Equal entries are not always repeated.

System: DU-145 multicell spheroids with HUVEC/MSC, viability
Assay: Anticancer human tumor DU-145 cell line growth inhibition [IpAb];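 further: spheroids exposed to agents for seven days before measurement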;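 on viability, T/C: percent of DMSO vehicle control viability so 100% = untreated level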
Conditions: for viability, T/C: stronger effect = lower value
Procedure, shortened: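 Spheroids of 60% malignant cells, 25% HUVEC and 15% MSC were exposed to targeted agents combined with ipatasertib or abemaciclib. Doses started at or near clinical Cmax (10 microM when unknown) and fell in half-log steps.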

[1] = curve of first compound, second compound 0.1 µM
[2] = curve of first compound, second compound 0.316 µM
[3] = curve of first compound, second compound 1 µM
[4] = second compound 0.1 µM, first compound 0.0316 µM
[5] = second compound 0.1 µM, first compound 0.1 µM
[6] = second compound 0.1 µM, first compound 0.316 µM
[7] = second compound 0.1 µM, first compound 1 µM
[8] = second compound 0.1 µM, first compound 3.16 µM
[9] = second compound 0.1 µM, first compound 10 µM
[10] = second compound 0.316 µM, first compound 0.0316 µM
[11] = second compound 0.316 µM, first compound 0.1 µM
[12] = second compound 0.316 µM, first compound 0.316 µM
[13] = second compound 0.316 µM, first compound 1 µM
[14] = second compound 0.316 µM, first compound 3.16 µM
[15] = second compound 0.316 µM, first compound 10 µM
[16] = second compound 1 µM, first compound 0.0316 µM
[17] = second compound 1 µM, first compound 0.1 µM
[18] = second compound 1 µM, first compound 0.316 µM
[19] = second compound 1 µM, first compound 1 µM
[20] = second compound 1 µM, first compound 3.16 µM
[21] = second compound 1 µM, first compound 10 µM

SMILES | pIC50 [1] | pIC50 [2] | pIC50 [3] | viability, T/C [4] | viability, T/C [5] | viability, T/C [6] | viability, T/C [7] | viability, T/C [8] | viability, T/C [9] | viability, T/C [10] | viability, T/C [11] | viability, T/C [12] | viability, T/C [13] | viability, T/C [14] | viability, T/C [15] | viability, T/C [16] | viability, T/C [17] | viability, T/C [18] | viability, T/C [19] | viability, T/C [20] | other results
CC1(C)CCC(CN2CCN(c3ccc(C(=O)NS(=O)(=O)c4ccc(NCC5CCOCC5)c([N+](=O)[O-])c4)c(Oc4cnc5[nH]ccc5c4)c3)CC2)=C(c2ccc(Cl)cc2)C1 + CC(C)NCC(C(=O)N1CCN(c2ncnc3c2C(C)CC3O)CC1)c1ccc(Cl)cc1 | 5.46 | 6.30 | > 7.50 | 86.7% | 87.5% | 78.1% | 74.9% | 53.3% | 11.5% | 58.1% | 53.6% | 50.6% | 45.2% | 37% | 8.7% | 30.5% | 29.4% | 30.9% | 28.6% | 27.1% | pIC50 (curve of first compound, second compound 3.16 µM): > 7.50; pIC50 (curve of first compound, second compound 10 µM): > 7.50; viability, T/C [21]: 10.4%; viability, T/C (second compound 3.16 µM, first compound 0.0316 µM): 23.1%; viability, T/C (second compound 3.16 µM, first compound 0.1 µM): 20.6%; viability, T/C (second compound 3.16 µM, first compound 0.316 µM): 20.4%; viability, T/C (second compound 3.16 µM, first compound 1 µM): 19.6%; viability, T/C (second compound 3.16 µM, first compound 3.16 µM): 19.9%; viability, T/C (second compound 3.16 µM, first compound 10 µM): 5.88%; viability, T/C (second compound 10 µM, first compound 0.0316 µM): 19.1%; viability, T/C (second compound 10 µM, first compound 0.1 µM): 19.2%; viability, T/C (second compound 10 µM, first compound 0.316 µM): 18.4%; viability, T/C (second compound 10 µM, first compound 1 µM): 16.9%; viability, T/C (second compound 10 µM, first compound 3.16 µM): 15.9%; viability, T/C (second compound 10 µM, first compound 10 µM): 5.38%
CC(C)(C)c1cnc(CSc2cnc(NC(=O)C3CCNCC3)s2)o1 |  |  |  |  |  |  |  |  |  |  |  |  |  |  |  |  |  |  |  |  | viability, T/C (compound 0.00949 µM): 110% and 106%; viability, T/C (compound 0.03 µM): 105% and 110%; viability, T/C (compound 0.0949 µM): 71.5% and 59.3%; viability, T/C (compound 0.3 µM): 12.9% and 9.3%; viability, T/C (compound 0.949 µM): 7.58% and 6.45%; viability, T/C (compound 3 µM): 5.4% and 5.44%; pIC50 (curve of compound): 6.84 and 6.93
Cc1nc(NC(=O)N2CCCC2C(N)=O)sc1-c1ccnc(C(C)(C)C(F)(F)F)c1 (configuration not stated) + CCN1CCN(Cc2ccc(Nc3ncc(F)c(-c4cc(F)c5nc(C)n(C(C)C)c5c4)n3)nc2)CC1 | 7.01 | 7.03 | 6.77 | 67.1% | 49.2% | 33.8% | 28.6% | 20.5% | 11% | 61% | 49.7% | 36.8% | 32.4% | 24.1% | 16% | 58.1% | 55% | 43.8% | 39% | 28.4% | pIC50 (curve of first compound, second compound 0.01 µM): 6.73; pIC50 (curve of first compound, second compound 0.0316 µM): 6.94; viability, T/C (second compound 0.01 µM, first compound 0.0316 µM): 75.3%; viability, T/C (second compound 0.01 µM, first compound 0.1 µM): 59.4%; viability, T/C (second compound 0.01 µM, first compound 0.316 µM): 39.9%; viability, T/C (second compound 0.01 µM, first compound 1 µM): 31.5%; viability, T/C (second compound 0.01 µM, first compound 3.16 µM): 19.4%; viability, T/C (second compound 0.01 µM, first compound 10 µM): 9.2%; viability, T/C (second compound 0.0316 µM, first compound 0.0316 µM): 73.5%; viability, T/C (second compound 0.0316 µM, first compound 0.1 µM): 45.8%; viability, T/C (second compound 0.0316 µM, first compound 0.316 µM): 38%; viability, T/C (second compound 0.0316 µM, first compound 1 µM): 29.5%; viability, T/C (second compound 0.0316 µM, first compound 3.16 µM): 19.2%; viability, T/C (second compound 0.0316 µM, first compound 10 µM): 8.68%; viability, T/C [21]: 21.5%
